The values below come from publication PMC8667930, “Novel sulphonamide-bearing methoxyquinazolinone derivatives as anticancer and apoptosis inducers: synthesis, biological evaluation and in silico studies” (Journal of Enzyme Inhibition and Medicinal Chemistry, 2021).

The test system of data set [1] is HepG2 cells (liver cancer). Description: MTT cytotoxicity assay, HepG2. It counts as cell-based. Conditions: mean ± SD (n = 3), NA = no activity; for IC50, HepG2: 48 h treatment; for IC50: Homo sapiens, HepG2, 48 h treatment. Here is the method:
(§1) The MTT assay was performed to test the antiproliferative activity of the synthesised compounds, as per the methodology described by Alqahtani and co-workers[35]. Briefly, A549, HepG2, LoVo, MCF-7 and HUVEC cell lines were seeded in 96-cell culture plates (5 × 10^4 per well) and allowed 24 h for adherence. The cells were then treated with different concentrations of each compound, and 5-fluorouracil was used as a positive control. Following the treatment period (48 h), 10 µL of MTT solution (5 mg/mL) was added to each well and the plates were incubated at 37 °C for 2–4 h. Isopropanol (100 µL) acidified with 0.1 N HCl was added to solubilise the formazan products and the plate was kept on a shaker for 10 min. The optical density of each mixture was measured at 570 nm using an enzyme-linked immunosorbent assay plate reader (ELISA plate reader, Bio-Tek, USA). The concentrations of tested compounds required to inhibit cell growth by 50% (IC50) were calculated using a dose-response curve. Cell survival was calculated using the following equation: Cell survival (%)=(OD of treated sample)/(OD of untreated sample)×100

Data set [2] deals with A549 cells (non-small cell lung carcinoma). As to the kind of experiment: MTT cytotoxicity assay, A549. It counts as cell-based. Particulars: mean ± SD (n = 3), NA = no activity; for IC50, A549: 48 h treatment; for IC50: Homo sapiens, A549, 48 h treatment. Here is the method: as §1
Data set [3] relates to LoVo cells (colon cancer). Description: MTT cytotoxicity assay, LoVo. It is filed as cell-based. Particulars: 48 h treatment, mean ± SD (n = 3), NA = no activity; for IC50: Homo sapiens, LoVo. The protocol:
as §1

Data set [4] relates to MCF-7 cells (human breast cancer cell line). Description: MTT cytotoxicity assay, MCF-7. It counts as cell-based. Particulars: mean ± SD (n = 3), NA = no activity; for IC50, MCF-7: 48 h treatment; for IC50: Homo sapiens, MCF7, 48 h treatment. Here is the method: as §1
The test system of data set [5] is HUVEC (normal human umbilical vein endothelial cells). Description: MTT cytotoxicity assay, HUVEC. It counts as cell-based. Conditions: 48 h treatment, mean ± SD (n = 3), NA = no activity; for IC50: Homo sapiens, HUVEC. The protocol:
as §1

The compound `COc1cccc2c(=O)n(-c3ccc(S(N)(=O)=O)cc3)c(SCC(=O)Nc3ccccc3)nc12` [Compound 5, 2-((8-Methoxy-4-oxo-3–(4-sulphamoylphenyl)-3,4-dihydroquinazolin-2-yl)thio)-N-phenyl-acetamide] returned a melting point greater than 350 °C. In addition, the “IC50, HepG2” value in data set [1] is “no activity”. Further, in data set [2], the “IC50, A549” value is “no activity”. In addition, in data set [3], the “IC50, LoVo” value is “no activity”. Also, in data set [4], the “IC50, MCF-7” value was “no activity”. Moreover, the “IC50, HUVEC” value in data set [5] was “no activity”.

Consider `COc1cc(NC(=O)CSc2nc3c(OC)cccc3c(=O)n2-c2ccc(S(N)(=O)=O)cc2)cc(OC)c1OC` [Compound 15, 2-((8-Methoxy-4-oxo-3-(4-sulphamoylphenyl)-3,4-dihydroquinazolin-2-yl)thio)-N-(3,4,5-trimethoxyphenyl) acetamide], for which the melting point is 290 to 292 °C. In data set [1], this compound displayed an IC50 of 75.2 ± 0.96 µM. In data set [2], this compound had an IC50 of 75 ± 1.74 µM. In data set [3], this compound registered an IC50 of 47.5 ± 4.08 µM. The compound also came in with a half-inhibitory concentration (IC50) in data set [4] of 74 ± 2.16 µM. For the same compound, the IC50 in data set [5] was determined as 79 ± 1.09 µM.

In turn, `COc1cc(NC(=O)CSc2nc3c(OC)cccc3c(=O)n2-c2ccc(S(N)(=O)=O)cc2)cc(OC)c1` [Compound 14, N-(3,5-Dimethoxyphenyl)-2-((8-methoxy-4-oxo-3-(4-sulphamoylphenyl)-3,4-dihydroq-uinazolin-2-yl)thio) acetamide] registered a melting point of 240 to 242 °C. The IC50 in data set [1] stood at 72.5 ± 1.06 µM. In data set [2], the IC50 was found to be 68.34 ± 0.42 µM. Moreover, the 50% inhibitory concentration (IC50) in data set [3] was determined as 38.3 ± 0.65 µM. In data set [4], this compound had a half-maximal inhibitory concentration (IC50) of 34.6 ± 1.15 µM. For the same compound, in data set [5], the 50% inhibitory concentration (IC50) came to 62.6 ± 2.34 µM.

The compound `CCc1ccccc1NC(=O)CSc1nc2c(OC)cccc2c(=O)n1-c1ccc(S(N)(=O)=O)cc1` [Compound 9, N-(2-Ethylphenyl)-2-((8-methoxy-4-oxo-3-(4-sulphamoylphenyl)-3,4-dihydroquinazolin-2-yl)thio) acetamide] registered a melting point of 288 to 290 °C. Further, in data set [1], the “IC50, HepG2” value is given as “no activity”. Also, the “IC50, A549” value in data set [2] is listed as “no activity”. Besides, in data set [3], the “IC50, LoVo” value is reported as “no activity”. In addition, the “IC50, MCF-7” value in data set [4] is “no activity”. Moreover, in data set [5], the “IC50, HUVEC” value is on record as “no activity”.

Compound `COc1cccc2c(=O)n(-c3ccc(S(N)(=O)=O)cc3)c(SCC(=O)Nc3cccc(C)c3)nc12` [Compound 7, 2-((8-Methoxy-4-oxo-3-(4-sulphamoylphenyl)-3,4-dihydroquinazolin-2-yl)thio)-N-(m-tolyl) acetamide] had a melting point greater than 350 °C. Besides, the IC50 in data set [1] turned out to be 39.7 ± 2.27 µM. Besides, the IC50 in data set [2] was 58.6 ± 1.52 µM. The same compound showed a half-inhibitory concentration (IC50) in data set [3] of 30.1 ± 1.3 µM. In data set [4], this compound registered a half-maximal inhibitory concentration (IC50) of 27.7 ± 1.85 µM. The compound also showed an IC50 in data set [5] of 83.2 ± 0.9 µM.

In turn, `CCc1ccc(NC(=O)CSc2nc3c(OC)cccc3c(=O)n2-c2ccc(S(N)(=O)=O)cc2)cc1` [Compound 11, N-(4-Ethylphenyl)-2-((8-methoxy-4-oxo-3-(4-sulphamoylphenyl)-3,4-dihydroquinazolin-2-yl)thio) acetamide] registered a melting point of 280 to 282 °C. The compound also displayed an IC50 in data set [1] of 42.7 ± 0.84 µM. Half-maximal inhibition in data set [2] (IC50) was put at 50.5 ± 1.73 µM. It took 29.4 ± 0.33 µM to reach half-maximal inhibition in data set [4] (IC50). Also, the IC50 in data set [5] came out at 32.9 ± 1.4 µM.

With `COc1ccc(NC(=O)CSc2nc3c(OC)cccc3c(=O)n2-c2ccc(S(N)(=O)=O)cc2)cc1` [Compound 12, 2-((8-Methoxy-4-oxo-3-(4-sulphamoylphenyl)-3,4-dihydroquinazolin-2-yl)thio)-N-(p-methoxyphenyl) acetamide], the melting point was in the range of 296 to 298 °C. In addition, the “IC50, HepG2” value in data set [1] is listed as “no activity”. In data set [2], the “IC50, A549” value was “no activity”. Moreover, the “IC50, LoVo” value in data set [3] is listed as “no activity”. In addition, in data set [4], the “IC50, MCF-7” value was “no activity”. Moreover, the “IC50, HUVEC” value in data set [5] is given as “no activity”.

As for `COc1cccc2c(=O)n(-c3ccc(S(N)(=O)=O)cc3)c(SCC(=O)Nc3c(C)cccc3[N+](=O)[O-])nc12` [Compound 17, 2-((8-Methoxy-4-oxo-3-(4-sulphamoylphenyl)-3,4-dihydroquinazolin-2-yl)thio)-N-(2-methyl-6-nitrophenyl) acetamide], the melting point is greater than 350 °C. Further, the “IC50, HepG2” value in data set [1] is “no activity”. Besides, in data set [2], the “IC50, A549” value is reported as “no activity”. In addition, the “IC50, LoVo” value in data set [3] is reported as “no activity”. Moreover, in data set [4], the “IC50, MCF-7” value is reported as “no activity”. Further, the “IC50, HUVEC” value in data set [5] was “no activity”.

`COc1cccc2c(=O)n(-c3ccc(S(N)(=O)=O)cc3)c(SCC(=O)Nc3ccc([N+](=O)[O-])cc3C)nc12` [Compound 16, 2-((8-Methoxy-4-oxo-3-(4-sulphamoylphenyl)-3,4-dihydroquinazolin-2-yl)thio)-N-(2-methyl-4-nitrophenyl) acetamide]: the melting point is greater than 350 °C. Also, the IC50 in data set [1] was found to be 75.7 ± 1.85 µM. In addition, the IC50 in data set [2] worked out at 67.4 ± 1.45 µM. Besides, the half-maximal inhibitory concentration (IC50) in data set [3] came to 40.98 ± 0.12 µM. The compound further yielded an IC50 in data set [4] of 39.9 ± 0.57 µM. Besides, the IC50 in data set [5] is 80.8 ± 1.13 µM.

With `O=c1[nH]cc(F)c(=O)[nH]1` [5-Flurouracil, 5-Fluorouracil, reference compound], the 50% inhibitory concentration (IC50) in data set [1] came to 132.4 ± 0.6 µM; in data set [2], 98.86 ± 0.01 µM; in data set [3], 90.71 ± 0.5 µM; in data set [4], 95.63 ± 0.3 µM; in data set [5], 167 ± 0.2 µM.

`CCOc1ccc(NC(=O)CSc2nc3c(OC)cccc3c(=O)n2-c2ccc(S(N)(=O)=O)cc2)cc1` [Compound 13, N-(p-Ethoxyphenyl)-2-((8-methoxy-4-oxo-3-(4-sulphamoylphenyl)-3,4-dihydroquin-azolin-2-yl)thio) acetamide] gave a melting point of 300 to 302 °C. In addition, in data set [1], half-maximal inhibition (IC50) required 38 ± 0.47 µM. This compound also gave an IC50 in data set [2] of 61.9 ± 1.35 µM. The IC50 in data set [3] is 54.4 ± 2.07 µM. In data set [4], this compound returned an IC50 of 46.7 ± 1.23 µM. The compound also gave an IC50 in data set [5] of 39 ± 1.4 µM.

`COc1cccc2c(=O)n(-c3ccc(S(N)(=O)=O)cc3)c(SCC(=O)Nc3ccc(C)cc3)nc12` [Compound 8, 2-((8-Methoxy-4-oxo-3-(4-sulphamoylphenyl)-3,4-dihydroquinazolin-2-yl)thio)-N-(p-tolyl) acetamide] registered a melting point greater than 350 °C. Further, the “IC50, HepG2” value in data set [1] is reported as “no activity”. The “IC50, A549” value in data set [2] is “no activity”. In addition, the “IC50, LoVo” value in data set [3] was “no activity”. In addition, in data set [4], the “IC50, MCF-7” value is given as “no activity”. In addition, in data set [5], the “IC50, HUVEC” value is given as “no activity”.
